Assay results from publication PMC12498271, “A First-In-Human Dose-Escalation Phase I Study of Basroparib, a Tankyrase Inhibitor, in Patients with Advanced-Stage Solid Tumors” (Cancer Research Communications, 2025).
Entries after “also recorded” stand apart in the source; their conditions may differ. Marks after values point to notes of the source that are not given here.

Experiments:
[1] = phase I plasma pharmacokinetics (HPLC-MS/MS, non-compartmental); assay type: in vivo, human; conditions: for Tmax / Tmax,ss: median (min, max); for t1/2: arithmetic mean (±SD)
Method: Blood samples for PK analysis were collected with K2EDTA tubes in serial before dose and at 0.25, 0.5, 1, 1.5, 2, 3, 4, 6, 8, 12, and 24 hours after dose on cycle 1 day 1 and before dose and at 1, 2, 3, 4, and 6 hours after dose on cycle 1 day 8 and before dose on days 1 and 15 of cycle 2 and beyond. Plasma concentrations of basroparib and its major metabolite, STP06-1007, were determined using the validated high-performance liquid chromatography/tandem mass spectrometry method at the bioanalytic laboratory (Celerion, Inc.). The analytic range (lower limit of quantitation – upper limit of quantitation) for basroparib and STP06-1007 was 0.05 to 250 ng/mL. Non-compartmental PK parameters were calculated using Phoenix WinNonlin version 8.4.0 (Certara).

[2] = GLP toxicology study in dog; cited from earlier work
[3] = Day 1, Cohort 1 (30 mg, once daily) N = 3, geometric mean (geometric CV%)
[4] = Day 1, Cohort 2 (60 mg, once daily) N = 4, geometric mean (geometric CV%)
[5] = Day 1, Cohort 3 (120 mg, once daily) N = 3, geometric mean (geometric CV%)
[6] = Day 1, Cohort 4 (180 mg, once daily) N = 5
[7] = Day 1, Cohort 4 (180 mg, once daily) N = 5, geometric mean (geometric CV%)
[8] = Day 1, Cohort 5 (240 mg, once daily) N = 3, geometric mean (geometric CV%)
[9] = Day 1, Cohort 6 (300 mg, once daily) N = 3, geometric mean (geometric CV%)
[10] = Day 1, Cohort 7 (360 mg, once daily) N = 4
[11] = Day 1, Cohort 7 (360 mg, once daily) N = 4, geometric mean (geometric CV%)
[12] = Day 8, Cohort 1 (30 mg, once daily) N = 3, geometric mean (geometric CV%)
[13] = Day 8, Cohort 2 (60 mg, once daily) N = 4, geometric mean (geometric CV%)
[14] = Day 8, Cohort 3 (120 mg, once daily) N = 3, geometric mean (geometric CV%)
[15] = Day 8, Cohort 4 (180 mg, once daily) N = 5, geometric mean (geometric CV%)
[16] = Day 8, Cohort 5 (240 mg, once daily) N = 3, geometric mean (geometric CV%)
[17] = Day 8, Cohort 7 (360 mg, once daily) N = 4, geometric mean (geometric CV%)
[18] = basroparib, 180 to 240 mg dose levels
[19] = day 1, patient 01-002, Cohort 2, 60 mg once daily
[20] = day 1, patient 01-007, Cohort 6, 300 mg once daily
[21] = day 1, patient 02-002, Cohort 4, 180 mg once daily
[22] = day 1, patient 03-012, Cohort 6, 300 mg once daily
[23] = day 1, three of four patients with stable disease
[24] = day 8 (steady state), patient 01-002, Cohort 2, 60 mg once daily
[25] = day 8 (steady state), patient 01-007, Cohort 6, 300 mg once daily
[26] = day 8 (steady state), patient 02-002, Cohort 4, 180 mg once daily
[27] = day 8 (steady state), patient 03-012, Cohort 6, 300 mg once daily

Compound: COCCOc1cc(F)c(N2CCN(c3nc4c(nnn4C)c(=O)[nH]3)CC2)c(F)c1 [basroparib]
- exposure following 360 mg dose compared with 300 mg dose ([1]; Cmax and AUCs): slightly lower
- AUC0–6 [1, 3]: 2,464.7 (50.60) hours × ng/mL
- AUClast [1, 3]: 4,845.4 (50.38) hours × ng/mL
- Cmax [1, 3]: 720.7 (37.01) ng/mL
- Tmax ([1]; Day 1, Cohort 1 (30 mg, once daily) N = 3): 3.0 (3, 3) hours
- t1/2 ([1]; Day 1, Cohort 1 (30 mg, once daily), two patients): 6.0 (±3.69)^a hours
- AUC0–6 [1, 4]: 3,169.7 (44.98) hours × ng/mL
- AUClast [1, 4]: 6,415.2 (69.39) hours × ng/mL
- Cmax [1, 4]: 968.3 (30.69) ng/mL
- Tmax ([1]; Day 1, Cohort 2 (60 mg, once daily) N = 4): 3.0 (3, 4) hours
- t1/2 ([1]; Day 1, Cohort 2 (60 mg, once daily), three patients): 11.0 (±5.33)^b hours
- AUC0–6 [1, 5]: 5,425.0 (51.50) hours × ng/mL
- AUClast [1, 5]: 15,835.9 (25.14) hours × ng/mL
- Cmax [1, 5]: 1,532.4 (68.26) ng/mL
- Tmax ([1]; Day 1, Cohort 3 (120 mg, once daily) N = 3): 3.0 (3, 24) hours
- t1/2 ([1]; Day 1, Cohort 3 (120 mg, once daily), two patients): 7.6 (±0.42)^a hours
- t1/2 [1, 6]: 7.7 (±3.13) hours
- AUC0–6 [1, 7]: 8,233.8 (67.46) hours × ng/mL
- AUClast [1, 7]: 16,504.6 (61.80) hours × ng/mL
- Cmax [1, 7]: 2,345.5 (68.30) ng/mL
- Tmax [1, 6]: 3.0 (2, 3) hours
- AUC0–6 [1, 8]: 7,622.5 (57.67) hours × ng/mL
- AUClast [1, 8]: 15,893.0 (18.35) hours × ng/mL
- Cmax [1, 8]: 2,417.1 (54.86) ng/mL
- Tmax ([1]; Day 1, Cohort 5 (240 mg, once daily) N = 3): 3.0 (2, 6) hours
- t1/2 ([1]; Day 1, Cohort 5 (240 mg, once daily), two patients): 6.0 (±0.39)^a hours
- AUC0–6 [1, 9]: 10,968.4 (109.20) hours × ng/mL
- AUClast [1, 9]: 24,221.3 (103.59) hours × ng/mL
- Cmax [1, 9]: 2,894.1 (115.67) ng/mL
- Tmax ([1]; Day 1, Cohort 6 (300 mg, once daily) N = 3): 3.0 (2, 4) hours
- t1/2 ([1]; Day 1, Cohort 6 (300 mg, once daily), two patients): 6.2 (±2.70)^a hours
- t1/2 [1, 10]: 5.8 (±0.94) hours
- AUC0–6 [1, 11]: 9,022.0 (45.09) hours × ng/mL
- AUClast [1, 11]: 19,692.3 (32.54) hours × ng/mL
- Cmax [1, 11]: 2,779.1 (46.78) ng/mL
- Tmax [1, 10]: 3.5 (3, 6) hours
- AUC0–6,ss [1, 12]: 2,584.9 (22.71) hours × ng/mL
- Cmax,ss [1, 12]: 789.0 (5.20) ng/mL
- Tmax,ss ([1]; Day 8, Cohort 1 (30 mg, once daily) N = 3): 3.0 (3, 6) hours
- AUC0–6,ss [1, 13]: 3,703.0 (23.05) hours × ng/mL
- Cmax,ss [1, 13]: 1,046.3 (49.51) ng/mL
- Tmax,ss ([1]; Day 8, Cohort 2 (60 mg, once daily) N = 4): 3.5 (3, 6) hours
- AUC0–6,ss [1, 14]: 6,447.2 (65.26) hours × ng/mL
- Cmax,ss [1, 14]: 1,526.2 (44.31) ng/mL
- Tmax,ss ([1]; Day 8, Cohort 3 (120 mg, once daily) N = 3): 3.0 (3, 4) hours
- AUC0–6,ss [1, 15]: 10,506.4 (121.25) hours × ng/mL
- Cmax,ss [1, 15]: 2,833.1 (105.02) ng/mL
- Tmax,ss ([1]; Day 8, Cohort 4 (180 mg, once daily) N = 5): 3.0 (3, 4) hours
- AUC0–6,ss [1, 16]: 10,509.6 (74.82) hours × ng/mL
- Cmax,ss [1, 16]: 3,139.9 (86.00) ng/mL
- Tmax,ss ([1]; Day 8, Cohort 5 (240 mg, once daily) N = 3): 3.0 (3, 4) hours
- Cmax,ss ([1]; Day 8, Cohort 6 (300 mg, once daily) N = 3, geometric mean (geometric CV%)): 2,933.8 (79.18) ng/mL
- Tmax,ss ([1]; Day 8, Cohort 6 (300 mg, once daily) N = 3): 3.0 (2, 4) hours
- AUC0–6,ss ([1]; Day 8, Cohort 6 (300 mg, once daily), two patients, geometric mean (geometric CV%)): 16,803.6 (10.54)^a hours × ng/mL
- AUC0–6,ss [1, 17]: 7,472.7 (103.39) hours × ng/mL
- Cmax,ss [1, 17]: 2,289.7 (70.09) ng/mL
- Tmax,ss ([1]; Day 8, Cohort 7 (360 mg, once daily) N = 4): 4.0 (2, 6) hours
- mean half-life (t1/2) ([1]; all dose levels except the 60 mg dose): 6 to 9 h
- time to Cmax (median) ([1]; all dose levels, day 1 and day 8 (steady state), oral): 3 to 4 h
- change in AUC0–6 on day 8 compared with day 1 [1, 18]: 1.4- to 1.7 fold
- change in Cmax on day 8 compared with day 1 [1, 18]: 1.2- to 1.6 fold
- AUC0–6 [1, 19]: 3,050 hours × ng/mL
- AUClast [1, 19]: 4,960 hours × ng/mL
- Cmax [1, 19]: 883 ng/mL
- AUC0–6 [1, 20]: 15,900 hours × ng/mL
- AUClast [1, 20]: 47,800 hours × ng/mL
- Cmax [1, 20]: 3,890 ng/mL
- AUC0–6 [1, 21]: 16,300 hours × ng/mL
- AUClast [1, 21]: 40,600 hours × ng/mL
- Cmax [1, 21]: 4,130 ng/mL
- AUC0–6 [1, 22]: 20,800 hours × ng/mL
- AUClast [1, 22]: 32,000 hours × ng/mL
- Cmax [1, 22]: 6,050 ng/mL
- AUClast [1, 23]: > 32,000 hours × ng/mL
- Cmax [1, 23]: > 3,890 ng/mL
- AUC0–6 ([1]; day 1 and day 8, three of four patients with stable disease): > 15,000 hours × ng/mL
- AUC0–6,ss [1, 24]: 3,200 hours × ng/mL
- Cmax,ss [1, 24]: 744 ng/mL
- AUC0–6,ss [1, 25]: 15,600 hours × ng/mL
- Cmax,ss [1, 25]: 3,820 ng/mL
- AUC0–6,ss [1, 26]: 27,300 hours × ng/mL
- Cmax,ss [1, 26]: 6,640 ng/mL
- AUC0–6,ss [1, 27]: 18,100 hours × ng/mL
- Cmax,ss [1, 27]: 4,970 ng/mL
- increase of Cmax and AUCs with dose ([1]; dose increase up to 300 mg): less than proportionally; also recorded: less than proportional
- GI toxicity [2]: has not been seen inducing any GI toxicity
